Target: T1, human LPA1 (Homo sapiens, UniProt Q92633)
T1 construct: expressed in transfected cells; host or cells: Chinese hamster ovary (CHO) cells
Test: LPA1 functional antagonist assay (LPA-induced calcium flux)
Format: cell-based
Settings: CHO cells overexpressing human LPA1, 10 nM LPA, read-out: hLPA1 IC50
Experimental: The effectiveness of compounds of the present invention as LPA1 inhibitors can be determined in an LPA1 functional antagonist assay as follows:
Chinese hamster ovary cells overexpressing human LPA1 were plated overnight (15,000 cells/well) in poly-D-lysine coated 384-well microplates (Greiner bio-one, Cat #781946) in DMEM/F12 medium (Gibco, Cat #11039). Following overnight culture, cells were loaded with calcium indicator dye (AAT Bioquest Inc, Cat #34601) for 30 minutes at 37° C. The cells were then equilibrated to room temperature for 30 minutes before the assay. Test compounds solubilized in DMSO were transferred to 384 well non-binding surface plates (Corning, Cat #3575) using the Labcyte Echo acoustic dispense and diluted with assay buffer [1×HBSS with calcium/magnesium (Gibco Cat #14025-092), 20 mM HEPES (Gibco Cat #15630-080) and 0.1% fatty acid free BSA (Sigma Cat #A9205)] to a final concentration of 0.5% DMSO. Diluted compounds were added to the cells by FDSS6000 (Hamamatsu) at final concentrations ranging from 0.08 nM to 5 μM. and were then incubated for 20 min at room temperature at which time LPA (Avanti Polar Lipids Cat #857130C) was added at final concentrations of 10 nM to stimulate the cells. The compound IC50 value was defined as the concentration of test compound which inhibited 50% of the calcium flux induced by LPA alone. IC50 values were determined by fitting data to a 4-parameter logistic equation (GraphPad Prism, San Diego Calif.).

T1 sequence (Q92633 whole entry): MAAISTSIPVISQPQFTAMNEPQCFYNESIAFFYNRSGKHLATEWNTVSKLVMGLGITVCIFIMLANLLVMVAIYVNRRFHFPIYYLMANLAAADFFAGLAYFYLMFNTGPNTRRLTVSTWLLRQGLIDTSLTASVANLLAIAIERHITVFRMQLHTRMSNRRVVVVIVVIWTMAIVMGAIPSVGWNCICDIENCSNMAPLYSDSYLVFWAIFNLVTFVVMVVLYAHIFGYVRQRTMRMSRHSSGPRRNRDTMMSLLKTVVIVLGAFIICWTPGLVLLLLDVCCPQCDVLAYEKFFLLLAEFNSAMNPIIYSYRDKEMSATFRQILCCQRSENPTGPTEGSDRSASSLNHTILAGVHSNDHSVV

| SMILES | IC50 [nM] |
| --- | --- |
| Cn1ncc(-c2ccc(O[C@H]3CCC[C@H](C(=O)O)C3)cn2)c1CNc1nccc(-c2ccccc2)n1 (relative stereo) [Example 1, Trans-3-((6-(1-methyl-5-(((4-phenylpyrimidin-2-yl)amino)methyl)-1H-pyrazol-4-yl)pyridin-3-yl)oxy)cyclohexane-1-carboxylic acid] | 122 |
| Cn1ncc(-c2ccc(O[C@H]3CCC[C@H](C(=O)O)C3)cn2)c1COc1cccc(-c2ccccc2)c1 (relative stereo) [Example 30, Trans-3-((6-(5-(([1,1′-biphenyl]-3-yloxy)methyl)-1-methyl-1H-pyrazol-4-yl)pyridin-3-yl)oxy)cyclohexane-1-carboxylicacid] | 104 |
| Cc1nc(-c2cnn(C)c2CNc2nccc(OC(C)C)n2)ncc1O[C@H]1CCC[C@H](C(=O)O)C1 [Example 2, (1S,3S)-3-((2-(5-(((4-Isopropoxypyrimidin-2-yl)amino)methyl)-1-methyl-1H-pyrazol-4-yl)-4-methylpyrimidin-5-yl)oxy)cyclohexane-1-carboxylic acid] | 29 |
| Cc1nc(-c2cnn(C)c2CNc2nccc(-c3ccccc3)n2)ccc1O[C@H]1CCC[C@H](C(=O)O)C1 [Example 4, (1S,3S)-3-((2-methyl-6-(1-methyl-5-(((4-phenylpyrimidin-2-yl)amino)methyl)-1H-pyrazol-4-yl)pyridin-3-yl)oxy)cyclohexanecarboxylic acid] | 54 |
| Cc1cc(-c2ccccn2)nc(NCc2c(-c3ccc(O[C@H]4CCC[C@H](C(=O)O)C4)c(C)n3)cnn2C)n1 [Example 5, (1S,3S)-3-((2-methyl-6-(1-methyl-5-(((4-methyl-6-(pyridin-2-yl)pyrimidin-2-yl)amino)methyl)-1H-pyrazol-4-yl)pyridin-3-yl)oxy)cyclohexanecarboxylic acid] | 217 |
| Cc1nc(-c2cnn(C)c2CNc2nccc(OCC(C)(F)F)n2)ncc1O[C@H]1CCC[C@H](C(=O)O)C1 [Example 8, (1S,3S)-3-((2-(5-(((4-(2,2-difluoro-propoxy)pyrimidin-2-yl)amino)methyl)-1-methyl-1H-pyrazol-4-yl)-4-methylpyrimidin-5-yl)oxy)cyclo-hexane-1-carboxylic acid] | 33 |
| Cc1nc(-c2cnn(C)c2CNc2nccc(Oc3ccccc3)n2)ncc1O[C@H]1CCC[C@H](C(=O)O)C1 [Example 9, (1S,3S)-3((4-methyl-2-(1-methyl-5-(((4-phenoxypyrimidin-2-yl)amino)-methyl)-1H-pyrazol-4-yl)pyrimidin-5-yl)oxy)cyclohexane-1-carboxylic acid] | 32 |
| Cc1nc(-c2cnn(C)c2CNc2nccc(C(C)(C)C)n2)ncc1O[C@H]1CCC[C@H](C(=O)O)C1 [Example 11, (1S,3S)-3-((2-(5-(((4-(tert-butyl)pyrimidin-2-yl)amino)methyl)-1-methyl-1H-pyrazol-4-yl)-4-methyl-pyrimidin-5-yl)oxy)cyclohexane carboxylic acid] | 50 |
| Cc1nc(-c2cnn(C)c2CNc2nccc(-c3ccccc3)n2)ncc1O[C@H]1CCC[C@H](C(=O)O)C1 [Example 13, (1S,3S)-3-((4-methyl-2-(1-methyl-5-(((4-phenylpyrimidin-2-yl)amino)methyl)-1H-pyrazol-4-yl)pyrimidin-5-yl)oxy)cyclohexanecarboxylic acid] | 33 |
| Cc1nc(-c2cnn(C)c2CNc2nccc(OCC(F)(F)F)n2)ncc1O[C@H]1CCC[C@H](C(=O)O)C1 [Example 16, (1S,3S)-3-((4-methyl-2-(1-methyl-5-(((4-(2,2,2-trifluoroethoxy)pyrimidin-2-yl)amino)methyl)-1H-pyrazol-4-yl)pyrimidin-5-yl)oxy)cyclohexane-1-carboxylic acid] | 12 |
| Cc1nc(-c2cnn(C)c2CNc2nccc(-c3ccccn3)n2)ncc1O[C@H]1CCC[C@H](C(=O)O)C1 [Example 17, (1S,3S)-3-((4-methyl-2-(1-methyl-5-(((4-(pyridin-2-yl)pyrimidin-2-yl)amino)methyl)-1H-pyrazol-4-yl)pyrimidin-5-yl)oxy)cyclohexane-1-carboxylic acid] | 79 |
| Cc1nc(-c2cnn(C)c2Nc2nccc(OC(C)C)n2)ncc1O[C@H]1CCC[C@H](C(=O)O)C1 [Example 18, (S,3S)-3-((2-(5-((4-isopropoxypyrimidin-2-yl)amino)-1-methyl-1H-pyrazol-4-yl)-4-methyl-pyrimidin-5-yl)oxy)cyclohexane-1-carboxylic acid] | 1010 |
| CCCc1ccnc(Nc2c(-c3ncc(O[C@H]4CCC[C@H](C(=O)O)C4)c(C)n3)cnn2C)n1 [Example 19, (1S,3S)-3-((4-methyl-2-(1-methyl-5-((4-propylpyrimidin-2-yl)amino)-1H-pyrazol-4-yl)pyrimidin-5-yl)oxy)cyclohexane-1-carboxylic acid] | 1410 |
| CCCOc1ccnc(Nc2c(-c3ncc(O[C@H]4CCC[C@H](C(=O)O)C4)c(C)n3)cnn2C)n1 [Example 20, (1S,3S)-3-((4-methyl-2-(1-methyl-5-((4-propoxypyrimidin-2-yl)amino)-1H-pyrazol-4-yl)pyrimidin-5-yl)oxy)cyclohexane-1-carboxylic acid] | 1230 |

Next, values leading:

| IC50 [nM] | SMILES |
| --- | --- |
| 22 | CCOc1ccnc(NCc2c(-c3ncc(O[C@H]4CCC[C@H](C(=O)O)C4)c(C)n3)cnn2C)n1 [Example 3, (1S,3S)-3-((2-(5-(((4-ethoxypyrimidin-2-yl)amino)methyl)-1-methyl-1H-pyrazol-4-yl)-4-methyl-pyrimidin-5-yl)oxy)cyclohexane-1-carboxylic acid] |
| 74 | COc1ccnc(NCc2c(-c3ncc(O[C@H]4CCC[C@H](C(=O)O)C4)c(C)n3)cnn2C)n1 [Example 6, (1S,3S)-3-((2-(5-(((4-methoxy-pyrimidin-2-yl)amino)methyl)-1-methyl-1H-pyrazol-4-yl)-4-methylpyrimidin-5-yl)oxy)cyclohexane-1-carboxylic acid] |
| 22 | Cc1nc(-c2cnn(C)c2CNc2nccc(OC3CC3)n2)ncc1O[C@H]1CCC[C@H](C(=O)O)C1 [Example 7, (1S,3S)-3-((2-(5-(((4-cyclopropoxy-pyrimidin-2-yl)amino)methyl)-1-methyl-1H-pyrazol-4-yl)-4-methylpyrimidin-5-yl)oxy)cyclohexane-1-carboxylic acid] |
| 47 | Cc1nc(-c2cnn(C)c2CNc2nccc(C(C)C)n2)ncc1O[C@H]1CCC[C@H](C(=O)O)C1 [Example 10, (1S,3S)-3-((2-(5-(((4-isopropyl-pyrimidin-2-yl)amino)methyl)-1-methyl-1H-pyrazol-4-yl)-4-methyl-pyrimidin-5-yl)oxy)cyclohexane carboxylic acid] |
| 172 | Cc1nc(-c2cnn(C)c2CNc2nccc(C3CC3)n2)ncc1O[C@H]1CCC[C@H](C(=O)O)C1 [Example 12, (1S,3S)-3-((2-(5-(((4-cyclopropyl-pyrimidin-2-yl)amino)methyl)-1-methyl-1H-pyrazol-4-yl)-4-methyl-pyrimidin-5-yl)oxy)cyclohexane-1-carboxylic acid] |
| 148 | Cc1nc(-c2cnn(C)c2CNc2ncnc(C3CCCC3)n2)ncc1O[C@H]1CCC[C@H](C(=O)O)C1 [Example 15, (1S,3S)-3-((2-(5-(((4-cyclopenty1-1,3,5-triazin-2-yl)amino)methyl)-1-methyl-1H-pyrazol-4-yl)-4-methylpyrimidin-5-yl)oxy)cyclohexane carboxylic acid] |
